Experimental data reported in patent US20180016593A1, “HERBICIDE-RESISTANT SUNFLOWER PLANTS, POLYNUCLEOTIDES ENCODING HERBICIDE-RESISTANT ACETOHYDROXYACID SYNTHASE LARGE SUBUNIT PROTEINS, AND METHODS OF USE” (priority 2005, published 2018).
Like-named read-outs stand apart in the source and are kept apart here.

Assays:
Format in all cases: in vivo, Helianthus annuus
Settings in all cases: 14 DAT
[1] = test system: sunflower TH1 (Hybrid, A205V)
Experimental: (§1) A greenhouse study was conducted to quantify and contrast the imazapir sensivity of the mutants A122T and A205V in different genetic backgrounds at the whole plant level in sunflower. Seeds of the different sunflower lines that were used in this study were obtained under field conditions.
(§2) Seeds were sown in Petri dishes and, after germination, plantlets were transplanted to pots of 10 cm of diameter in a potting media consisting of equal parts of vermiculite, soil and sand. Plants were grown in a greenhouse under natural light conditions supplemented with 400 W sodium halide lamps to provide a 16 hrs daylength. Day/night temperatures were 25 and 20° C., respectively. At the V2 stage 10 plants of each genotype were randomly assigned to each treatment consisting of […] imazapir doses (0, 40, 80, 160, 240, 320, 400 and 480 g ai/ha), and a zero-time biomass determination. Experiment was arranged as a randomized block design with a full factorial (sunflower line×treatment) arrangement of treatments and 10 replications.
(§3) On the day of herbicide application ten plants of each genotype were cut at the cotyledonal node and dried at 60° C. for 48 hrs zero-time for dried weight determination.
(§4) Height was determined as the distance between the cotyledonal node and the apex of each plant. For root biomass determination, each plant was taken from the pot and the potting media was washed out from the roots. Above ground biomass data from each line were converted to biomass accumulation after application by subtracting the appropriate average zero-time biomass from each sample. Dry biomass data were converted to percentages of the untreated control plants within each line to allow direct comparisons between groups. […]

[2] = test system: sunflower TH10 (Restorer Line, A205V)
Experimental: as §1, §2, §3, §4

[3] = test system: sunflower TH12 (Restorer Line, A122T)
Experimental: as §1, §2, §3, §4

CC(C)C1(C)N=C(c2ncccc2C(=O)O)NC1=O (centres unmarked) [imazapyr]
biomass accumulation (above ground dry weight) ([1]; 0.5x (40 g ai/ha)): 95.0 % of untreated plots
plant height ([1]; 0.5x (40 g ai/ha)): 99.5 % of untreated plots
root dry weight ([1]; 0.5x (40 g ai/ha)): 79.4 % of untreated plots
biomass accumulation (above ground dry weight) ([1]; 1x (80 g ai/ha)): 89.6 % of untreated plots
plant height ([1]; 1x (80 g ai/ha)): 99.5 % of untreated plots
root dry weight ([1]; 1x (80 g ai/ha)): 70.7 % of untreated plots
biomass accumulation (above ground dry weight) ([1]; 2x (160 g ai/ha)): 75.5 % of untreated plots
plant height ([1]; 2x (160 g ai/ha)): 78.6 % of untreated plots
root dry weight ([1]; 2x (160 g ai/ha)): 69.6 % of untreated plots
biomass accumulation (above ground dry weight) ([1]; 3x (240 g ai/ha)): 60.4 % of untreated plots
plant height ([1]; 3x (240 g ai/ha)): 48.4 % of untreated plots
root dry weight ([1]; 3x (240 g ai/ha)): 42.3 % of untreated plots
biomass accumulation (above ground dry weight) ([1]; 4x (320 g ai/ha)): 48.5 % of untreated plots
plant height ([1]; 4x (320 g ai/ha)): 28.9 % of untreated plots
root dry weight ([1]; 4x (320 g ai/ha)): 38.6 % of untreated plots
biomass accumulation (above ground dry weight) ([1]; 5x (400 g ai/ha)): 38.9 % of untreated plots
plant height ([1]; 5x (400 g ai/ha)): 25.3 % of untreated plots
root dry weight ([1]; 5x (400 g ai/ha)): 34.7 % of untreated plots
biomass accumulation (above ground dry weight) ([1]; 6x (480 g ai/ha)): 33.9 % of untreated plots
plant height ([1]; 6x (480 g ai/ha)): 27.1 % of untreated plots
root dry weight ([1]; 6x (480 g ai/ha)): 23.1 % of untreated plots
Phytotoxicity Index ([2]; 0.5x (40 g ai/ha)): 0
biomass accumulation (above ground dry weight) ([2]; 0.5x (40 g ai/ha)): 99.2 % of untreated plots
plant height ([2]; 0.5x (40 g ai/ha)): 99.2 % of untreated plots
root dry weight ([2]; 0.5x (40 g ai/ha)): 90.3 % of untreated plots
Phytotoxicity Index ([2]; 1x (80 g ai/ha)): 0
biomass accumulation (above ground dry weight) ([2]; 1x (80 g ai/ha)): 85.0 % of untreated plots
plant height ([2]; 1x (80 g ai/ha)): 98.1 % of untreated plots
root dry weight ([2]; 1x (80 g ai/ha)): 69.9 % of untreated plots
Phytotoxicity Index ([2]; 2x (160 g ai/ha)): 3.1
biomass accumulation (above ground dry weight) ([2]; 2x (160 g ai/ha)): 58.1 % of untreated plots
plant height ([2]; 2x (160 g ai/ha)): 63.6 % of untreated plots
root dry weight ([2]; 2x (160 g ai/ha)): 41.3 % of untreated plots
Phytotoxicity Index ([2]; 3x (240 g ai/ha)): 3.9
biomass accumulation (above ground dry weight) ([2]; 3x (240 g ai/ha)): 48.1 % of untreated plots
plant height ([2]; 3x (240 g ai/ha)): 51.9 % of untreated plots
root dry weight ([2]; 3x (240 g ai/ha)): 42.8 % of untreated plots
Phytotoxicity Index ([2]; 4x (320 g ai/ha)): 5.9
biomass accumulation (above ground dry weight) ([2]; 4x (320 g ai/ha)): 28.8 % of untreated plots
plant height ([2]; 4x (320 g ai/ha)): 27.5 % of untreated plots
root dry weight ([2]; 4x (320 g ai/ha)): 22.3 % of untreated plots
Phytotoxicity Index ([2]; 5x (400 g ai/ha)): 6.9
biomass accumulation (above ground dry weight) ([2]; 5x (400 g ai/ha)): 27.4 % of untreated plots
plant height ([2]; 5x (400 g ai/ha)): 26.0 % of untreated plots
root dry weight ([2]; 5x (400 g ai/ha)): 22.7 % of untreated plots
Phytotoxicity Index ([2]; 6x (480 g ai/ha)): 6.7
biomass accumulation (above ground dry weight) ([2]; 6x (480 g ai/ha)): 24.9 % of untreated plots
plant height ([2]; 6x (480 g ai/ha)): 29.3 % of untreated plots
root dry weight ([2]; 6x (480 g ai/ha)): 16.4 % of untreated plots
Phytotoxicity Index ([3]; 0.5x (40 g ai/ha)): 0.0
biomass accumulation (above ground dry weight) ([3]; 0.5x (40 g ai/ha)): 100.0 % of untreated plots
plant height ([3]; 0.5x (40 g ai/ha)): 100.0 % of untreated plots
root dry weight ([3]; 0.5x (40 g ai/ha)): 99.4 % of untreated plots
Phytotoxicity Index ([3]; 1x (80 g ai/ha)): 0.0
biomass accumulation (above ground dry weight) ([3]; 1x (80 g ai/ha)): 99.1 % of untreated plots
plant height ([3]; 1x (80 g ai/ha)): 100.0 % of untreated plots
root dry weight ([3]; 1x (80 g ai/ha)): 100 % of untreated plots
Phytotoxicity Index ([3]; 2x (160 g ai/ha)): 0.0
biomass accumulation (above ground dry weight) ([3]; 2x (160 g ai/ha)): 97.0 % of untreated plots
plant height ([3]; 2x (160 g ai/ha)): 101.8 % of untreated plots
root dry weight ([3]; 2x (160 g ai/ha)): 100 % of untreated plots
Phytotoxicity Index ([3]; 3x (240 g ai/ha)): 0.0
biomass accumulation (above ground dry weight) ([3]; 3x (240 g ai/ha)): 96.1 % of untreated plots
plant height ([3]; 3x (240 g ai/ha)): 97.0 % of untreated plots
root dry weight ([3]; 3x (240 g ai/ha)): 100.0 % of untreated plots
Phytotoxicity Index ([3]; 4x (320 g ai/ha)): 0.0
biomass accumulation (above ground dry weight) ([3]; 4x (320 g ai/ha)): 84.3 % of untreated plots
plant height ([3]; 4x (320 g ai/ha)): 92.1 % of untreated plots
root dry weight ([3]; 4x (320 g ai/ha)): 74.5 % of untreated plots
Phytotoxicity Index ([3]; 5x (400 g ai/ha)): 0.0
biomass accumulation (above ground dry weight) ([3]; 5x (400 g ai/ha)): 77.5 % of untreated plots
plant height ([3]; 5x (400 g ai/ha)): 84.8 % of untreated plots
root dry weight ([3]; 5x (400 g ai/ha)): 65.0 % of untreated plots
Phytotoxicity Index ([3]; 6x (480 g ai/ha)): 0.5
biomass accumulation (above ground dry weight) ([3]; 6x (480 g ai/ha)): 70.7 % of untreated plots
plant height ([3]; 6x (480 g ai/ha)): 79.8 % of untreated plots
root dry weight ([3]; 6x (480 g ai/ha)): 57.8 % of untreated plots
